Measurements from patent US20160108008A1, “Substituted N-(Tetrazol-5-yl)- and N-(Triazol-5-yl)arylcarboxamide Compounds and Their Use as Herbicides” (BASF SE, priority 2013, published 2016).
Marks after values point to notes of the source that are not given here.

Assays:
Assay type in all cases: in vivo
Abutilon theophrasti = assay: greenhouse pre-emergence treatment, ABUTH; conditions: pre-emergence (value labeled *), scale 0-100
Description: (§1) The culture containers used were plastic flowerpots containing loamy sand with approximately 3.0% of humus as the substrate. The seeds of the test plants were sown separately for each species.
(§2) For the pre-emergence treatment, the active ingredients, which had been suspended or emulsified in water, were applied directly after sowing by means of finely distributing nozzles. The containers were irrigated gently to promote germination and growth and subsequently covered with transparent plastic hoods until the plants had rooted. This cover caused uniform germination of the test plants, unless this has been impaired by the active ingredients.
(§3) Depending on the species, the plants were kept at 10-25° C. or 20-35° C. The test period extended over 2 to 4 weeks. During this time, the plants were tended, and their response to the individual treatments was evaluated.
(§4) Evaluation was carried out using a scale from 0 to 100. 100 means no emergence of the plants, or complete destruction of at least the aerial moieties, and 0 means no damage, or normal course of growth. A good herbicidal activity is given at values of at least 70 and a very good herbicidal activity is given at values of at least 85.
(§5) The plants used in the greenhouse experiments belonged to the following species:
(§6) Following representative compounds of formula I according to Table 9 were used in post-emergence treatments in greenhouse experiments (values labeled with * result from pre-emergence experiments): […]

Chenopodium album = assay: greenhouse post-emergence treatment, CHEAL; conditions: scale 0-100
Description: as §1
(§7) For the post-emergence treatment, the test plants were first grown to a height of 3 to 15 cm, depending on the plant habit, and only then treated with the active ingredients which had been suspended or emulsified in water. For this purpose, the test plants were either sown directly and grown in the same containers, or they were first grown separately as seedlings and transplanted into the test containers a few days prior to treatment.
as §3, §4, §5, §6

Amaranthus retroflexus [1] = assay: greenhouse post-emergence treatment, AMARE; conditions: scale 0-100
Description: as §1, §7, §3, §4, §5, §6

Echinochloa crus-galli = assay: greenhouse post-emergence treatment, ECHCG; conditions: scale 0-100
Description: as §1, §7, §3, §4, §5, §6

Amaranthus retroflexus [2] = assay: greenhouse pre-emergence treatment, AMARE; conditions: pre-emergence (value labeled *), scale 0-100
Description: as §1, §2, §3, §4, §5, §6

SMILES | [%] damage to weed VI (CHEAL) (Chenopodium album; 250 g/ha) | [%] damage to weed III (AMARE) (Amaranthus retroflexus [1]; 250 g/ha) | [%] damage to weed VII (ECHCG) (Echinochloa crus-galli; 250 g/ha) | [%] damage to weed III (AMARE) (Amaranthus retroflexus [2]; 250 g/ha) | other results
COc1c(Cl)cc(F)c(C(=O)Nc2nnnn2C)c1Cl [compound 9] | – | – | – | – | [%] damage to weed I (ABUTH) (Abutilon theophrasti; 196 g/ha): 100* %; [%] damage to weed VI (CHEAL) (Chenopodium album; 196 g/ha): 100%; [%] damage to weed III (AMARE) (Amaranthus retroflexus [1]; 196 g/ha): 100%
CCOc1c(Cl)cc(F)c(C(=O)Nc2nnnn2C)c1Cl [compound 18] | 100% | 85% | 98% | – | [%] damage to weed I (ABUTH) (Abutilon theophrasti; 250 g/ha): 100* %
CCOc1c(Cl)cc(F)c(C(=O)Nc2nnnn2CCOC)c1Cl [compound 19] | 100% | 100% | 100% | – | [%] damage to weed I (ABUTH) (Abutilon theophrasti; 250 g/ha): 100* %
CCCSc1c(Cl)cc(F)c(C(=O)Nc2nnnn2C)c1Cl [compound 21] | – | – | – | – | [%] damage to weed I (ABUTH) (Abutilon theophrasti; 243 g/ha): 100* %; [%] damage to weed VI (CHEAL) (Chenopodium album; 243 g/ha): 100%; [%] damage to weed III (AMARE) (Amaranthus retroflexus [1]; 243 g/ha): 100%; [%] damage to weed VII (ECHCG) (Echinochloa crus-galli; 243 g/ha): 100%
CCCSc1c(Cl)cc(F)c(C(=O)Nc2ncnn2C)c1Cl [compound 22] | 100% | 100: % | 100% | 80* % | –
CCC[S+]([O-])c1c(Cl)cc(F)c(C(=O)Nc2nnnn2C)c1Cl (stereo not drawn) [compound 23] | 100% | 100; % | 98% | 98* % | –
CCCS(=O)(=O)c1c(Cl)cc(F)c(C(=O)Nc2nnnn2C)c1Cl [compound 24] | 100% | 100; % | 100% | 100* % | –
CCCS(=O)(=O)c1c(Cl)cc(F)c(C(=O)Nc2ncnn2C)c1Cl [compound 26] | – | – | – | – | [%] damage to weed VI (CHEAL) (Chenopodium album; 500 g/ha): 100%; [%] damage to weed III (AMARE) (Amaranthus retroflexus [1]; 500 g/ha): 100; %; [%] damage to weed VII (ECHCG) (Echinochloa crus-galli; 500 g/ha): 98%; [%] damage to weed III (AMARE) (Amaranthus retroflexus [2]; 500 g/ha): 98* %
CCC[S+]([O-])c1c(Cl)cc(F)c(C(=O)Nc2ncnn2C)c1Cl (stereo not drawn) [compound 27] | – | – | – | – | [%] damage to weed VI (CHEAL) (Chenopodium album; 244 g/ha): 100%; [%] damage to weed III (AMARE) (Amaranthus retroflexus [1]; 244 g/ha): 100; %; [%] damage to weed VII (ECHCG) (Echinochloa crus-galli; 244 g/ha): 98%; [%] damage to weed III (AMARE) (Amaranthus retroflexus [2]; 244 g/ha): 85* %
CCn1nnnc1NC(=O)c1c(F)cc(Cl)c([S+](C)[O-])c1Cl (stereo not drawn) [compound 32] | 100% | 100; % | 100% | 100* % | –
CCSc1c(Cl)cc(Cl)c(C(=O)Nc2nnnn2C)c1Cl [compound 41] | 100% | 100; % | 100% | 100* % | –
CC[S+]([O-])c1c(Cl)cc(Cl)c(C(=O)Nc2nnnn2C)c1Cl (stereo not drawn) [compound 60] | – | – | – | – | [%] damage to weed VI (CHEAL) (Chenopodium album; 500 g/ha): 100%; [%] damage to weed III (AMARE) (Amaranthus retroflexus [1]; 500 g/ha): 100; %; [%] damage to weed VII (ECHCG) (Echinochloa crus-galli; 500 g/ha): 98%; [%] damage to weed III (AMARE) (Amaranthus retroflexus [2]; 500 g/ha): 100* %
CCSc1c(Cl)cc(F)c(C(=O)Nc2nnnn2CC)c1Cl [compound 64] | – | – | – | – | [%] damage to weed VI (CHEAL) (Chenopodium album; 500 g/ha): 100%; [%] damage to weed III (AMARE) (Amaranthus retroflexus [1]; 500 g/ha): 100; %; [%] damage to weed VII (ECHCG) (Echinochloa crus-galli; 500 g/ha): 100%; [%] damage to weed III (AMARE) (Amaranthus retroflexus [2]; 500 g/ha): 100* %
COCCOc1c(Cl)cc(F)c(C(=O)Nc2nnnn2CCOC)c1Cl [compound 68] | 100% | 100; % | 100% | 100* % | –
COCCOc1c(Cl)cc(F)c(C(=O)Nc2nnnn2C)c1Cl [compound 70] | 100% | 98% | 95% | – | [%] damage to weed I (ABUTH) (Abutilon theophrasti; 250 g/ha): 100* %
CCn1nnnc1NC(=O)c1c(F)cc(Cl)c(OCCOC)c1Cl [compound 71] | 100% | 98% | 80% | – | [%] damage to weed I (ABUTH) (Abutilon theophrasti; 250 g/ha): 100* %
CCS(=O)(=O)c1c(Cl)cc(Cl)c(C(=O)Nc2nnnn2C)c1Cl [compound 73] | 100% | 100; % | 100% | 98* % | –

SMILES | [%] damage to weed VI (CHEAL) (Chenopodium album; 250 g/ha) | [%] damage to weed III (AMARE) (Amaranthus retroflexus [1]; 250 g/ha) | [%] damage to weed VII (ECHCG) (Echinochloa crus-galli; 250 g/ha) | [%] damage to weed III (AMARE) (Amaranthus retroflexus [2]; 250 g/ha) | other results
COCCn1nnnc1NC(=O)c1c(F)cc(Cl)c([S+](C)[O-])c1Cl (stereo not drawn) [compound 74] | – | – | – | – | [%] damage to weed I (ABUTH) (Abutilon theophrasti; 110 g/ha): 98* %; [%] damage to weed VI (CHEAL) (Chenopodium album; 110 g/ha): 100%; [%] damage to weed III (AMARE) (Amaranthus retroflexus [1]; 110 g/ha): 100%; [%] damage to weed VII (ECHCG) (Echinochloa crus-galli; 110 g/ha): 100%
COCCn1nnnc1NC(=O)c1c(Cl)cc(Cl)c(SC)c1Cl [compound 75] | 100% | 100; % | 100% | 100* % | –
CC[S+]([O-])c1c(Cl)cc(F)c(C(=O)Nc2nnnn2CCOC)c1Cl (stereo not drawn) [compound 77] | – | – | – | – | [%] damage to weed VI (CHEAL) (Chenopodium album; 125 g/ha): 100%; [%] damage to weed III (AMARE) (Amaranthus retroflexus [1]; 125 g/ha): 100; %; [%] damage to weed VII (ECHCG) (Echinochloa crus-galli; 125 g/ha): 100%; [%] damage to weed III (AMARE) (Amaranthus retroflexus [2]; 125 g/ha): 100* %
CCSc1c(Cl)cc(F)c(C(=O)Nc2nnnn2CCOC)c1Cl [compound 79] | 100% | 100; % | 100% | 100* % | –
CSc1ccc(Cl)c(C(=O)Nc2nnnn2C)c1Cl [compound 82] | 100% | 100; % | 98% | 100* % | –
COCCn1nnnc1NC(=O)c1c(Cl)ccc(SC)c1Cl [compound 83] | 100% | 100; % | 100% | 100* % | –
COCCOc1ccc(Cl)c(C(=O)Nc2ncnn2C)c1Cl [compound 85] | 100% | 100% | 85% | – | –
CCSc1ccc(Cl)c(C(=O)Nc2ncnn2C)c1Cl [compound 87] | 100% | 100; % | 98% | 98* % | –
CCSc1ccc(Cl)c(C(=O)Nc2nnnn2C)c1Cl [compound 88] | 100% | – | 100% | – | –
COCCn1nnnc1NC(=O)c1c(F)cc(Cl)c(OCCC(F)(F)F)c1Cl [compound 89, 2,4-Dichloro-6-fluoro-N-[1-(2-methoxyethyl)tetrazol-5-yl]-3-(3,3,3-trifluoropropoxy)-benzamide] | 100% | 100; % | 100% | 100* % | –
Cn1ncnc1NC(=O)c1c(F)cc(Cl)c(OCCC(F)(F)F)c1Cl [compound 90, 2,4-Dichloro-6-fluoro-N-(2-methyl-1,2,4-triazol-3-yl)-3-(3,3,3-trifluoropropoxy)benzamide] | 100% | – | 90% | – | –
Cn1nnnc1NC(=O)c1c(F)cc(Cl)c(OCCC(F)(F)F)c1Cl [compound 91, 2,4-Dichloro-6-fluoro-N-(1-methyltetrazol-5-yl)-3-(3,3,3-trifluoropropoxy)benzamide] | 100% | 100; % | 100% | 100* % | –
CCn1nnnc1NC(=O)c1c(F)cc(Cl)c(OCCC(F)(F)F)c1Cl [compound 92, 2,4-Dichloro-N-(1-ethyltetrazol-5-yl)-6-fluoro-3-(3,3,3-trifluoropropoxy)benzamide] | 100% | 100; % | 100% | 100* % | –
CSc1c(F)cc(Cl)c(C(=O)Nc2nnnn2C)c1F [compound 95] | 100% | 100; % | 100% | 95* % | –
CCSc1c(F)cc(Cl)c(C(=O)Nc2nnnn2C)c1F [compound 97] | 100% | 100; % | 100% | 100* % | –
COCCn1nnnc1NC(=O)c1c(Cl)cc(F)c(SC)c1F [compound 99] | 100% | 100; % | 100% | 100* % | –
Cn1ncnc1NC(=O)c1c(F)cc(Cl)c([S+](C)[O-])c1Cl (stereo not drawn) [cpd. 5] | 100% | 100% | 98% | – | –
